Reference: patent publication US20070128669A1, “Serum-free expansion of cells in culture” (Institute for Chemical Genomics, priority 2005, published 2007)

Experiments:
[1] = tested on: Mouse D3 ESCs; assay: Long term expansion of ESCs without MEF feeders or LIF; format: cell-based
Protocol: FIG. 1. […] FIG. 1A, Structure of IQ-1. FIG. 1B, IQ-1 dose dependently maintains alkaline phosphatase activity. FIG. 1C, IQ-1, dose dependently, maintains SSEA-1 expression. SSEA-1 expression was analyzed 7 days after addition of IQ-1. FIG. 1D, IQ-1 enabled ESCs to proliferate in the undifferentiated state for at least 65 days, without MEF feeders or LIF. ESCs, in media supplemented with 4 μg/ml IQ-1, were passaged 2-3 times every week at 1×10^5-1×10^6 cells per 6 cm dish and counted. All error bars represent mean±SD.
(§1) Cell culture. ESCs, D3ES (ATCC CRL-1934) were maintained on Mitomycin C treated MEFs in mouse ESC medium containing DMEM (Invitrogen) supplemented with 15% FBS (Invitrogen), 0.1 mM MEM nonessential amino acids (Invitrogen), 0.1 mM 2-mercaptoethanol (Sigma), 2 mM L-glutamine (Invitrogen) and 1,000 U/ml LIF (CHEMICON). To remove MEFs, cells were collected by trypsinization and plated on gelatin-coated culture dishes for 20 min. Non-adherent cells consisting mainly of ESCs were replated on gelatin-coated culture dishes again. Non-adherent cells were used for further experiments. P19 cells were cultured according to conditions recommended by the ATCC. Cells were incubated at 37° C. in a 5% CO2 incubator. Purified Wnt3a was purchased (R&D Systems).
IQ-1 allowed for long term expansion of ESCs in culture without MEFs and without the addition of exogenous LIF. […]

[2] = tested on: zebrafish embryos; assay: Zebrafish embryo development (convergent extension); format: in vivo, zebrafish (danio rerio); conditions: 1 μM, 1-cell stage embryos, 24 h
Protocol: Zebrafish experiments. Wild-type (AB) zebrafish strain at 1-cell stage were treated with IQ-1 at a final concentration of 1 μM in embryo medium for 24 h. Control zebrafish embryos were incubated at an equivalent concentration of DMSO. At the end of this 24 h treatment, embryos were manually dechorionated and imaged. Zebrafish embryos were maintained at 28° C. Results shown are representative of those obtained from at least 10 embryos for each group, from 2 independent experiments.

[3] = tested on: ESCs; assay: Long term feeder-free culture of ESCs in serum-free (15% KSR) media; format: cell-based, mouse
Protocol: FIG. 7. […] ESCs were cultured in 15% KSR, 4 μg/ml of IQ-1 and 100 ng/ml Wnt3a. ESCs were passaged 2-3 times per week at 1×10^5-1×10^6 cells per 6 cm dish and cells were counted.
FIG. 8. […] AP activity of ESCs cultured for 7 days in IQ-1 containing media supplemented with 15% FCS or 15% KSR. […] (Error bars represent ±S.D.)
FIG. 9. […] Over the 42-day culture period, ESCs cultured in the media in the presence of IQ-1 and Wnt3a maintain expression of the pluripotency markers, (a) Nanog, (b) Oct3/4 and (c) Rex-1. The expression level on day 0 was set as 1.
as §1

[4] = tested on: TCF/β-catenin reporter in NIH-3T3 cells; assay: TOPFLASH/FOPFLASH TCF/β-catenin reporter assay in NIH-3T3 cells; format: cell-based
Protocol: NIH-3T3 cells (wt), NIH-3T3 CBP(+/−) cells and NIH-3T3 p300(+/−) cells were transfected as described in (26). Briefly, cells were transfected with TOPFLASH or FOPFLASH, using Fugene6 (Roche Molecular Biochemicals). Transfection efficiencies were normalized with pRL-null luciferase plasmid. Luciferase assays were performed with the DUAL-Luciferase Reporter Assay System (Promega).
In certain experiments, NIH-3T3 cells (wt), NIH-3T3 CBP(+/−) cells and NIH-3T3 p300(+/−) cells were transfected as described in (26). Briefly, cells were transfected with TOPFLASH or FOPFLASH, using Fugene6 (Roche Molecular Biochemicals). Transfection efficiencies were normalized with pRL-null luciferase plasmid. Luciferase assays were performed with the DUAL-Luciferase Reporter Assay System (Promega).
The Wnt/β-catenin reporter constructs TOPFLASH and FOPFLASH in wild-type NIH-3T3 cells (wt), NIH-3T3 CBP(+/−) cells and NIH-3T3 p300(+/−) cells were used to determine whether IQ-1, by targeting the PR72/130 subunit with PP2A, was selectively increasing β-catenin's usage of CBP as a coactivator at the expense of p300, thereby maintaining the ESCs in the undifferentiated state (FIG. 4A). A point mutant constitutively translocating β-catenin (pt-mut β-cat) was used to stimulate reporter activity (28).

[5] = tested on: ESCs; assay: Embryoid body formation and differentiation of long term cultured ESCs; format: cell-based, mouse
Protocol: FIG. 5. […] FIG. 5A, long term cultured ESCs were induced to form embryoid bodies in suspension cultures for 3 days. ESCs cultured in media in the presence of Wnt3A and IQ-1 (4 μg/ml) for 48 days were able to form embryoid bodies (Left). ESCs lose their ability to form embryoid bodies after 3 days of culturing in the absence IQ-1 (Right). FIG. 5B, IQ-1 treated ESCs derived embryoid bodies were cultured (adherence culture) for 7-14 days to induce further differentiation. […] FIG. 5C, model depicting the proposed mechanism of action of IQ-1.
Immunocytochemistry and Antibodies. Cells were fixed for 20 min with 4% paraformaldehyde in PBS. Immunostaining was carried out using standard protocols. Primary antibodies were used at the following dilutions: anti α-fetoprotein mouse monoclonal (R&D systems, 10 ug/ml), anti-Actin, Smooth muscle Ab-1 mouse monoclonal (LAB VISION, 1:1), anti-GATA4 mouse monoclonal (SANTA CRUZ, 1:100), anti-MAP (microtubule associated protein)2 mouse monoclonal (Chemicon, 1:200), βIII-tubulin mouse monoclonal (Chemicon, 1:200), anti-Oligodendrocyte mouse monoclonal (Chemicon, 1:1,000). Secondary antibodies were Alexa Fluor 488 or 594 goat anti-mouse IgG (H+L)(Invitrogen, 1:200). Cells were imaged using an Olympus IX 70 microscope with ×40-200 magnification.

[6] = stimulated with pt-mut β-catenin

CC(=O)c1ccc(NN=C(C(N)=O)C2=NC(C)(C)Cc3ccccc32)cc1 [IQ-1]
time ESCs proliferate in the undifferentiated state ([1]; 4 μg/ml IQ-1, without MEF feeders or LIF): at least 65 days
ESC proliferation rate ([1]; 15% FCS plus 4 μg/ml IQ-1, 65 days, without MEFs or LIF): ~2 log increase every ten days
zebrafish embryo development [2]: significant developmental defects
proliferation and expression of Oct4, Nanog and Rex1, combination of Wnt3a and IQ-1 ([3]; 15% KSR, Wnt3a 100 ng/ml plus IQ-1 4 μg/ml): allowed for proliferation and maintenance of pluripotency
time ESC proliferation and pluripotency maintained in culture ([3]; IQ-1 in conjunction with purified Wnt3a, absence of serum): at least 48 days
maintenance of undifferentiated status of ESCs, agent alone ([3]; KSR media, single agent): Neither Wnt3a nor IQ-1 alone was sufficient
Fopflash reporter activity ([4]; NIH-3T3 cells): no effect
TOPFLASH activity, NIH-3T3 CBP (+/−) cells [4, 6]: did not affect TOPFLASH or FOPFLASH activity
TOPFLASH activity, wt NIH-3T3 cells [4, 6]: did not affect TOPFLASH or FOPFLASH activity
increase in TOPFLASH activity, NIH-3T3 p300 (+/−) cells [4, 6]: 2-3 fold
pluripotency: embryoid body formation and differentiation to three germ layers ([5]; IQ-1 (4 μg/ml) and Wnt3a, after day 48): maintained the pluripotency of ESCs
time to loss of pluripotency after removal of IQ-1 ([5]; removal of IQ-1): ≤ 3 days
